US7563918B2, “Solid and crystalline ibandronate sodium and processes for preparation thereof” (Teva Pharmaceutical Industries Ltd., priority 2004, dated 2009)

Test: Storage stability of crystalline form (polymorphic transformation)
Assay type: physicochemical
Settings: stored under 100% relative humidity at 40° C. for 3 days
Description: In another embodiment, the present invention provides a solid crystalline form of ibandronate sodium denominated Form QQ. Form QQ is characterized by x-ray powder diffraction reflections at 6.2, 25.9, 26.7, 31.1, and 37.2±0.2 degrees two-theta. Form QQ can be further characterized by x-ray powder diffraction reflections at 16.9, 17.3, 21.5, 24.7, and 29.2±0.2 degrees two-theta. […] Form QQ also has a particle size distribution of not more than 100μpreferably not more than 60μ. […] can be a in the range of a monohydrate to a trihydrate. Form QQ can be further characterized by TGA, showing a weight loss of about 5 to about 12%.

Compound: CCCCCN(C)CCC(O)(P(=O)([O-])O)P(=O)(O)O.[Na+] [Form QQ, (1-hydroxy-3-(N-methyl-N-pentylamino)propylidene) bisphosphonic acid monosodium salt]
- transformation into other polymorphic forms when stored: ≤ 5%
